Assay results taken from patent publication US20050244387A1, “Entomopathogenic nematodes and methods of their use” (priority 2004, published 2005).

Assays:
Type in all cases: in vivo
[1] = system: second instar Popillia japonica grub populations; test: Microplot (cylinder) field trials, Trials 1-4; conditions: Ohio
Method: Microplot trials consisted of field plots in which PVC cylinders, 20 cm inside diameter, were inserted to a depth of about 7 cm. Four microplot trials (Trials 14) were conducted on second instar P. japonica grubs.
P. japonica adults were caged in the PVC cylinders to obtain grub populations following the methods described by Klein et al. (2000). Adult beetles were lured to Trece Catch Can traps (Trece Inc., Adair, Okla.) using a feeding lure containing PEG (phenol ethyl propionate, eugenol, and geraniol) and collected. Twice, at 1-week intervals, 30 adults consisting of approximately 50% females (measured volumetrically) were placed in each cylinder and covered with a nylon 20 mesh screen to induce egg laying within the cylinder area. The ovipositing beetles were fed fresh apple slices dusted with Brewer's yeast twice a week. Fourteen days after the initial caging, the nylon screens were removed. The developing grub population was monitored until the larvae reached the second instar, when all curative treatments were applied.
Trials 1, 2, and 4 were located at the Ohio Agricultural Research and Development Center, Wooster, Ohio whereas trial 3 was located at the TrueGreen Technical Center in Delaware, Ohio. Trials 1, 2, and 4 were set up on 1.5-m by 0.9-m plots, separated by 0.9 m alleyways, arranged in a complete randomized block design with four replications/treatment. For these trials, turf consisted of 70% Kentucky bluegrass and 30% dicot and monocot weed species, with level topography and no thatch was observed. Soil was a silt loam, with 2.8% OM, pH 6.0, 11.4 CEC. Trial 3 was conducted on Kentucky bluegrass lawn using 2.44 by 2.44 m plots arranged in a completely randomized block design with 5 replications/treatment. Soil was also a silt loam. Supplemental irrigation was applied prior to treatments to optimize beetle egg hatch and maintain actively growing turfgrass at both locations.
The nematodes were applied in 100 ml of water at 2.5×10^9 IJs/ha as a curative treatment to each cylinder except for trial 3, in which they were applied at 5.0×10^9 IJs/ha in 7.6 liters of water per plot with a hand held sprinkling can. Chemical insecticides were included for comparison in three of the trials. In trial 1, halofenozide was applied at 1.61 kg active ingredient (a.i.)/ha on Jul. 13, 2000 as a preventive treatment prior to P. japonica egg laying with a CO2 sprayer and Teejet 8015 nozzles at 2.81 kg/cm^2 (40 psi) delivering 1630 liters/ha. In trial 2, imidacloprid (Merit 75 WP) was applied at 0.33 kg a.i./ha on July 14 and trichlorfon granules (Dylox 6.2G) at 9.0 kg a.i./ha with a shaker on September 14. In trial 3, trichlorofon was applied as in trial 2. All plots received post-application irrigation (see Table 2).
(§1) Efficacy data from all field trials were obtained from six, 18×18×7 cm deep samples removed from the middle of each plot. Soil from each square was lifted with a spade and placed in a plastic dishpan and the number of live grubs counted by hand sifting the soil and turf.
(§2) Data on the total numbers of surviving grubs from each plot were subjected to the analysis of variance following the log10 […] transformation using Statsoft (1999) for each trial and means were separated by Tukey's mean separation test at P=0.05. In cylinder studies, the number of surviving grubs from all cylinders were pooled by plot. […]. For predictability analysis, all data on the mean percentage control of all white grubs were pooled by treatment and subjected to the analysis of variance using Statsoft (1999) following arcsine transformation. Only trichlorfon was included in these analyses as it is applied as a curative treatment just like the nematodes.

[2] = system: Cyclocephala borealis grubs; test: Large field plot trial 5, golf course fairway; conditions: Trial 5, Mansfield, Ohio, autumn 2001; nematodes 2.5 × 10^9 IJ/ha, imidacloprid 0.33 kg, trichlorfon 9.0 kg; applied September 11, data October 9
Method: (§3) Four field plot trials (Trials 5-8) were conducted on natural populations of P. japonica and C. borealis, or both species if they occurred together. Trial 5 was conducted on a naturally occurring mixed population of P. japonica and C. borealis grubs on a fairway at Wooldridge Woods Golf Course in Mansfield, Ohio in autumn 2001. Plots measuring 3-m by 3-m and separated by 0.9-m alleyways were arranged in a complete randomized block design with five replications/treatment. All treatments including imidacloprid (Merit 75WP) and trichlorfon (Dylox 6.2G) were applied on the morning of September 11 as curative treatments. Liquid applications were made with a sprinkling can at a volume of 8 liters/plot. Nematodes were applied at 2.5×10^9 IJ/ha. The trichlorfon granules were applied using a Gandy Drop Spreader (Gandy Company, Owatonna, Minn.). Grub population consisted of 30% second and 70% third instar P. japonica, and 100% third instar C. borealis. Turf consisted of 70% Kentucky bluegrass and 30% annual bluegrass, topography level, height 2.5 cm, and had no thatch.
as §1, §2

Popillia japonica grubs = test: Large field plot trial 5, golf course fairway; conditions: Trial 5, Mansfield, Ohio, autumn 2001, nematodes 2.5 × 10^9 IJ/ha, imidacloprid 0.33 kg, trichlorfon 9.0 kg, applied September 11, data October 9
Method: as §3, §1, §2

[3] = system: mixed populations of third instar Popillia japonica and Cyclocephala borealis grubs; test: Large field plot trials 6 and 7, Kentucky bluegrass lawn; conditions: Ohio, autumn 2001, nematodes 2.5 × 10^9 IJs/ha, applied September 14, data October 9
Method: Trials 6 and 7 were conducted on stands of Kentucky bluegrass naturally infested with mixed populations of mostly third instar P. japonica and C. borealis in autumn 2001. The 1.2 by 1.2-m plots were located at the TrueGreen Technical Center in Delaware, Ohio. The nematodes were applied at 2.5×10^9 IJs/ha in trial 6 and at 5.0×10^9 IJ/ha in trial 7 with a CO2 backpack sprayer with a 10 cm boom fitted with three 8005 LP flat fan nozzles at a volume of 813 liters/ha. Plots were arranged in a randomized complete block design with 5 replications/treatment for both trials.
as §1, §2

[4] = system: white grubs, Popillia japonica and Cyclocephala borealis; test: Pooled analysis of field trials (irrigation plus rainfall, predictability); conditions: nematodes at 2.5×10^9 IJs/ha, trichlorfon curatively at standard rate; mean ± S.E.
From the text: as §2

[5] = Trial 1, 2000 Wooster, nematodes 2.5 × 10^9 IJs/ha applied Sept 13, halofenozide 1.61 kg a.i./ha applied July 13, observed Oct 5
[6] = Trial 2, 2001 Wooster, nematodes 2.5 × 10^9 IJs/ha Sept 12, imidacloprid 0.34 kg July 14, trichlorfon 9.0 kg Sept 12, observed Oct 10
[7] = Trial 3, 2001 Columbus, nematodes 5.0 × 10^9 IJs/ha, trichlorfon 9.0 kg, applied Sept 14, observed Oct 9
[8] = Trial 6, Columbus, trichlorfon 9.0 kg/ha
[9] = Trial 7, Columbus, trichlorfon standard rate 9.0 kg

| Compound | % Control [1, 5] | Mean grubs/plot [1, 5] | % Control [1, 6] | Mean grubs/plot [1, 6] | C. borealis % control [2] | C. borealis Mean grubs/plot [2] | P. japonica % Control (Popillia japonica grubs) | P. japonica Mean grubs/plot (Popillia japonica grubs) | P. japonica % Control (Popillia japonica grubs; listed as IMIDACLOPRID (MERIT 75 WP)) | % Control [1, 7] | Mean grubs/plot [1, 7] | % Control [3, 8] | Mean grubs/plot [3, 8] | % Control [3, 9] | Mean grubs/plot [3, 9] | overall percent white grub control, pooled data across all trials [4] |
| --- | --- | --- | --- | --- | --- | --- | --- | --- | --- | --- | --- | --- | --- | --- | --- | --- |
| CC(C)(C)N(NC(=O)c1ccc(Cl)cc1)C(=O)c1ccccc1 [Halofenozide] | 98% | 0.7 b grubs/plot |  |  |  |  |  |  |  |  |  |  |  |  |  |  |
| O=[N+]([O-])NC1=NCCN1Cc1ccc(Cl)nc1 [Imidacloprid] |  |  | 98% | 0.3 d grubs/plot | 47% | 3.8 ab grubs/plot | no effect | 17.8 a grubs/plot | 0% |  |  |  |  |  |  |  |
| COP(=O)(OC)C(O)C(Cl)(Cl)Cl (stereo not shown) [Trichlorfon] |  |  | 92% | 1.3 cd grubs/plot | 47% | 3.8 b grubs/plot | 57% | 7.6 c grubs/plot |  | 29% | 6.4 ab grubs/plot | 0% | 11.7 a grubs/plot | 77% | 4.0 b grubs/plot | 50.33±13.5% |
